Data: patent publication US10562891B2, “Quinazolinones as PARP14 inhibitors” (Ribon Therapeutics Inc., priority 2017, dated 2020)
Where a name gives a salt, the structure may show the parent alone.

Target: catalytic domain of human PARP14 (Homo sapiens (Human), UniProt Q460N5)
Test: Enzymatic assay for inhibition of PARP14 (DELFIA, auto-modification with biotin-NAD)
Format: biochemical
Conditions: auto-modification of PARP14 by biotin-NAD, 50 nM PARP14, 3 μM biotin-NAD
Experimental: An N-terminal His-TEV fusion tag was used to purify the protein from cell lysates. The His-TEV tag was left on the protein for use in the enzymatic assay.
Enzymatic inhibition of PARP14 was measured using a dissociation-enhanced lanthanide fluorescence immunoassay (DELFIA) monitoring the auto-modification of PARP14 by biotinylated nicotinamide adenine dinucleotide (biotin-NAD). 1 μL of a dose response curve of each test compound was spotted in 384-well nickel-coated white microplates (Thermo) using a Mosquito (TTP Labtech). Reactions were performed in a 50 μL volume by adding 40 μL of PARP14 in assay buffer (20 mM HEPES pH==8, 100 mM NaCl, 0.1% bovine serum albumin, 2 mM DTT and 0.002%0 Tween20), incubating with test compound at 25° C. for 30 min, then adding 10 μL of biotin-NAD (Biolog). The final concentrations of PARP14 and biotin-NAD are 50 nM and 3 μM, respectively. Reactions proceeded at 25° C. for 3 h, then were quenched with 5 μL of 10 mM unmodified nicotinamide adenine dinucleotide (Sigma-Aldrich). The quenched reactions were washed 3 times with 100 μL of TBST wash buffer (50 mM Tris-HCl, 150 mM NaCl and 0.1% Tween20). Next, to the washed and dried plate was added 25 μL of DELFIA Europium-N1 streptavidin (Perkin Elmer) diluted in DELFIA assay buffer (Perkin Elmer). After a 30 min incubation at 25° C., the plate was washed 5 times with TBST wash buffer. Finally, 25 μL of DELFIA enhancement solution was added. After a 5 min incubation the plate was read on an Envision platereader equipped with a LANCE/DELFIA top mirror (Perkin Elmer) using excitation of 340 nm and emission of 615 nm to measure the amount of Europium present in each well, informing on the amount of biotin-NAD that was transferred in the automodification reaction.
[formula] where ex615cmpd is the emission from the compound treated well, ex615min is the emission from the rucaparib treated positive control well and ex615max is the emission from the DMSO treated negative control well.
The % inhibition values were plotted as a function of compound concentration and the following 4-parameter fit was applied to derive the IC50 values:
[formula] where top and bottom are normally allowed to float, but may be fixed at 100 or 0 respectively in a 3-parameter fit. The Hill Coefficient is normally allowed to float but may also be fixed at 1 in a 3-parameter fit. Y is the % inhibition and X is the compound concentration.

Chain of catalytic domain of human PARP14 (Q460N5 1611-1801): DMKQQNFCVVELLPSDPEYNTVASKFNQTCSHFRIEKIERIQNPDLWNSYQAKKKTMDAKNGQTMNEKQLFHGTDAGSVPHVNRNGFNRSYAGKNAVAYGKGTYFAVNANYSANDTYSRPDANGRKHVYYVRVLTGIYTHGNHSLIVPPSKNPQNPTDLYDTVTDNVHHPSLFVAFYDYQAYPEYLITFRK

SMILES | IC50
O=c1[nH]c(CSC2CCOCC2)nc2cc(NC3CCCN(Cc4ccccc4)C3)ccc12 (stereo not shown) [Example 126, 7-[(1-Benzyl-3-piperidyl)amino]-2-(tetrahydropyran-4-ylsulfanylmethyl)-3H-quinazolin-4-one] | 1 to 10 µM
NC[C@]1(F)CC[C@@H](SCc2nc3cc(OCC4CCC4)cc(F)c3c(=O)[nH]2)CC1 [Example 336] | 1 to 10 µM
O=c1[nH]c(CSC2CCOCC2)nc2cc(NC3CCCCC3)ccc12 [Example 108, 7-(Cyclohexylamino)-2-(((tetrahydro-2H-pyran-4-yl)thio)methyl)quinazolin-4(3H)-one] | < 1 µM
CN1CC[C@H](CNc2cc3nc(CSC4CCOCC4)[nH]c(=O)c3c(F)c2F)[C@H](F)C1 (relative stereo) [Example 408] | 1 to 10 µM
Cc1nn(C)cc1CN1CCC(SCc2nc3c(C)cccc3c(=O)[nH]2)CC1 [Example 144, 2-(((1-((1,3-Dimethyl-1H-pyrazol-4-yl)methyl)piperidin-4-yl)thio)methyl)-8-methylquinazolin-4(3H)-one trifluoroacetate] | 1 to 10 µM
O=c1[nH]c(CS[C@H]2CCNC[C@@H]2C(F)(F)F)nc2cc(NC3CCCC3)cc(F)c12 (relative stereo) [Example 222, 7-(Cyclopentylamino)-5-fluoro-2-(((trans-3-(trifluoromethyl)piperidin-4-yl)thio)methyl)quinazolin-4(3H)-one Hydrochloride] | < 1 µM
Cc1cccc2c(=O)[nH]c(CSC3CCN(CCNC(=O)c4ccccn4)CC3)nc12 [Example 164, N-(2-(4-(((8-Methyl-4-oxo-3,4-dihydroquinazolin-2-yl)methyl)thio)piperidin-1-yl)ethyl)picolinamide] | 1 to 10 µM
O=c1[nH]c(CSC2CCOCC2)nc2cc(NCC3CCOC3)c(F)c(F)c12 (stereo not shown) [Example 322, 5,6-Difluoro-2-(((tetrahydro-2H-pyran-4-yl)thio)methyl)-7-(((tetrahydrofuran-3-yl)methyl)amino)quinazolin-4(3H)-one] | < 1 µM
Cc1cc(NC2CCCC2)cc2nc(CSC3CCNCC3)[nH]c(=O)c12 [Example 257, 7-(Cyclopentylamino)-5-methyl-2-((piperidin-4-ylthio)methyl)quinazolin-4(3H)-one hydrochloride] | < 1 µM
CNc1ccc2c(=O)[nH]c(CSC3CCOCC3)nc2c1 [Example 110, 7-(Methylamino)-2-(((tetrahydro-2H-pyran-4-yl)thio)methyl)quinazolin-4(3H)-one] | 1 to 10 µM
O=c1[nH]c(CSC2CCNCC2)nc2cc(NCC3CCOCC3)cc(F)c12 [Example 272, 5-Fluoro-2-((piperidin-4-ylthio)methyl)-7-(((tetrahydro-2H-pyran-4-yl)methyl)amino)quinazolin-4(3H)-one] | 1 to 10 µM
Cc1cccc2c(=O)[nH]c(CSC3CCN(C(=O)[C@H](N)CCCNC(=N)N)CC3)nc12 [Example 169, (R)-1-(4-Amino-5-(4-(((8-methyl-4-oxo-3,4-dihydroquinazolin-2-yl)methyl)thio)piperidin-1-yl)-5-oxopentyl)guanidine Trihydrochloride] | < 1 µM
O=c1[nH]c(CSC2CCOCC2)nc2cc(OCC3CCN(CCC(F)(F)F)CC3)cc(F)c12 [Example 298, 5-Fluoro-2-(((tetrahydro-2H-pyran-4-yl)thio)methyl)-7-((1-(3,3,3-trifluoropropyl)piperidin-4-yl)methoxy)quinazolin-4(3H)-one] | < 1 µM
O=c1[nH]c(CSC2CCOCC2)nc2cc(OC[C@H]3CNC[C@H]3F)cc(F)c12 (relative stereo) [Example 371] | < 1 µM
O=c1[nH]c(CSC2CCNCC2)nc2cc(NC3CCCC3)c(F)cc12 [Example 226, 7-(Cyclopentylamino)-6-fluoro-2-((piperidin-4-ylthio)methyl)quinazolin-4(3H)-one hydrochloride] | < 1 µM
O=c1[nH]c(CSC2CCOCC2)nc2cc(OC[C@@H]3CCCO3)cc(F)c12 [Example 321b, (S)-5-Fluoro-2-(((tetrahydro-2H-pyran-4-yl)thio)methyl)-7-((tetrahydrofuran-2-yl)methoxy)quinazolin-4(3H)-one] | < 1 µM
